Molecular target: tau (Homo sapiens, UniProt P10636)
Assay: MCE Phenols Library screening, tau biosensor cell seeding assay (AvZ)
Type: cell-based
Conditions: for Z repl 1 / Z Repl 2: Z score; for Z repl 1 / raw data 1: replicate 1; for Z Repl 2 / raw data 2: replicate 2; for AvZ (average z score of seeding, SDs from the mean level of seeding): 10 μM phenol in cell cultures, AD brain homogenate preincubated 16 hours, two biological replicates, positive = catalyzes seeding, negative = inhibits
[1] = average Z score of the two replicates, MCE Phenols Library screen
[2] = average Z score of two replicates, Phenols Library screen
[3] = average Z score of the two replicates, tau seeding
[4] = average puncta of the two replicates

tau, sequence (P10636 623-695 limits assumed): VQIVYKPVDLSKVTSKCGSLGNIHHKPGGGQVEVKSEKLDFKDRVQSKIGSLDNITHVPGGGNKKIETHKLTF

Z repl 1 | Z Repl 2 | av Z [1] | av puncta (average of raw data 1 and 2) | raw data 1 (puncta) | raw data 2 (puncta) | av Z [2] | av Z [3] | av puncta [4] | raw data 1 (raw puncta) | raw data 2 (raw puncta) | SMILES | AvZ (average z score of seeding, SDs from the mean level of seeding)
0.232 | -0.247 | – | 19631.7 | 29136 | 10127.4 | -0.007 | – | – | – | – | O=C(/C=C/c1ccc(O)c(O)c1)O[C@@H]1C[C@](O)(C(=O)O)C[C@@H](O)[C@H]1O [Chlorogenic acid] | –
0.79 | 0.073 | – | 24687.2 | 35829.5 | 13544.8 | – | 0.431 | – | – | – | O=C(O)[C@H]1O[C@@H](Oc2cc(O)c3c(=O)cc(-c4ccccc4)oc3c2)[C@H](O)[C@@H](O)[C@@H]1O [Chrysin-7-O-glucuronide] | –
0.623 | -0.203 | – | 22210.2 | 33824.2 | 10596.2 | – | 0.21 | – | – | – | COc1cc(-c2cc(=O)c3c(O)cc(O)cc3o2)ccc1O [Chrysoeriol] | –
0.088 | -0.899 | -0.406 | – | – | – | – | – | 15282.9 | 27400 | 3165.82 | COc1cc(-c2oc3cc(OC)c(OC)c(O)c3c(=O)c2OC)ccc1O [Chrysosplenetin] | –
-0.369 | -0.502 | -0.435 | – | – | – | – | – | 14662.2 | 21923.2 | 7401.19 | COc1cc(CCO[C@@H]2O[C@H](CO[C@@H]3O[C@H](CO)[C@@H](O)[C@H](O)[C@H]3O)[C@@H](OC(=O)/C=C/c3ccc(O)c(O)c3)[C@H](O[C@@H]3O[C@@H](C)[C@H](O)[C@@H](O)[C@H]3O)[C@H]2O)ccc1O [Cistanoside A] | –
-0.088 | -0.968 | -0.528 | – | 25288.8 | 2427.91 | – | – | 13858.4 | – | – | C[C@@H]1O[C@@H](OC[C@H]2O[C@@H](Oc3c(-c4ccc(O)cc4)oc4cc(O)cc(O)c4c3=O)[C@H](O[C@@H]3O[C@@H](C)[C@H](O)[C@@H](O)[C@H]3O)[C@@H](O)[C@@H]2O)[C@H](O)[C@H](O)[C@H]1O [Clitorin] | –
-0.17 | -1.084 | -0.627 | – | 24311.1 | 1190.55 | – | – | 12750.8 | – | – | O=C(/C=C/c1ccc(O)c(O)c1)N[C@@H](Cc1ccc(O)c(O)c1)C(=O)O [Clovamide] | –
0.366 | 0.999 | – | 27089.5 | 30747.2 | 23431.8 | – | 0.683 | – | – | – | COc1ccc2c(c1)OC[C@@H](c1cc(O)c(OC)c(OC)c1O)C2 [Colutehydroquinone] | –
-0.533 | -0.238 | -0.385 | – | – | – | – | – | 15089 | 19953.5 | 10224.5 | COc1cc(O)c2c(=O)c(O[C@@H]3O[C@H](CO)[C@@H](O)[C@H](O)[C@H]3O)c(-c3ccc(O[C@@H]4O[C@H](CO)[C@@H](O)[C@H](O)[C@H]4O)cc3)oc2c1 [Complanatuside] | –
0.738 | 0.319 | – | 25693.5 | 35213 | 16173.9 | – | – | – | – | – | COc1cc(/C=C/CO)ccc1O [Coniferyl alcohol] | 0.529
0.368 | -0.434 | – | 19449.2 | 30768 | 8130.42 | -0.033 | – | – | – | – | COc1cc(/C=C/COC(=O)/C=C/c2ccc(O)c(OC)c2)ccc1O [Coniferyl ferulate] | –
-1.842 | -1.134 | -1.488 | 2445.41 | 4240.16 | 650.661 | – | – | – | – | – | O=C(O[C@@H]1O[C@@H]2COC(=O)c3cc(O)c(O)c(O)c3-c3c(cc(O)c(O)c3O)C(=O)O[C@H]([C@H]1O)[C@@H]2O)c1cc(O)c(O)c(O)c1 [Corilagin] | –
0.054 | -0.445 | – | 17502.5 | 26996.8 | 8008.18 | -0.196 | – | – | – | – | CC(C)=CCC/C(C)=C/Cc1cc(-c2coc3cc(O)ccc3c2=O)ccc1O [Corylifol A] | –
0.295 | -0.524 | – | 18532.2 | 29892.4 | 7171.93 | -0.114 | – | – | – | – | COc1cc2c(cc1O)CCN1Cc3c(ccc(OC)c3OC)CC21 (stereo not shown) [Corypalmine] | –
-0.018 | -0.542 | -0.28 | – | – | – | – | – | 16558.4 | 26137.6 | 6979.18 | O=c1oc2cc(O)ccc2c2oc3cc(O)ccc3c12 [Coumestrol] | –
0.313 | 1.224 | – | 27969.9 | 30100.9 | 25838.9 | – | – | – | – | – | COc1cc(C)ccc1O [Creosol] | 0.768
0.935 | 0.427 | – | 27449.5 | 37574 | 17325 | – | 0.681 | – | – | – | O=C(/C=C/c1ccc(O)c(O)c1)O[C@H]1[C@H](O)C[C@](O)(C(=O)O)C[C@H]1O [Cryptochlorogenic acid] | –
-0.772 | 0.136 | -0.318 | – | – | – | – | – | 15649.1 | 17078.1 | 14220.1 | COc1cccc(OC)c1C(=O)OCc1cc(O)ccc1O[C@@H]1O[C@H](CO)[C@@H](O)[C@H](O)[C@H]1O [Curculigoside] | –
– | – | – | – | – | – | – | – | 16957.6 | 27554 | 6361.09 | O=c1c(-c2ccc(O)cc2)coc2cc(O)ccc12 [Daidzein] | –
-1.052 | -0.634 | -0.843 | 9858.03 | 13720.6 | 5995.43 | – | – | – | – | – | O=C1c2cccc(O)c2C(=O)c2c(O)cccc21 [Danthron] | –
-0.257 | -0.157 | -0.207 | – | – | – | – | – | 17173.7 | 23258.6 | 11088.8 | COc1cc2cc(Oc3ccc4ccc(=O)oc4c3)c(=O)oc2cc1O [Daphnoretin] | –
0.835 | 0.419 | – | 26809.6 | 36377.1 | 17242.2 | – | 0.627 | – | – | – | C/C=C/c1cc(OC)c2c(c1)C(C)C(c1ccc(O)c(OC)c1)O2 (stereo not shown) [Dehydrodiisoeugenol] | –

SMILES | Z repl 1 | Z Repl 2 | av Z [1] | av puncta (average of raw data 1 and 2) | raw data 1 (puncta) | raw data 2 (puncta) | av Z [2] | av Z [3] | av puncta [4] | raw data 1 (raw puncta) | raw data 2 (raw puncta) | AvZ (average z score of seeding, SDs from the mean level of seeding)
O=C(O)C[C@@H]1C(=O)O[C@H]2[C@H](OC(=O)c3cc(O)c(O)c(O)c3)[C@@H](OC(=O)c3cc(O)c(O)c4c3[C@H]1[C@H](O)C(=O)O4)[C@H](OC(=O)c1cc(O)c(O)c(O)c1)O[C@@H]2COC(=O)c1cc(O)c(O)c(O)c1 [Chebulinic acid] | -2.186 | -1.184 | -1.685 | 117.372 | 108.91 | 125.835 | – | – | – | – | – | –
COc1cc2c(cc1O)-c1cc3ccc(OC)c(OC)c3c[n+]1CC2 [Columbamine] | 0.655 | 0.636 | – | 26887.1 | 34211.5 | 19562.6 | – | 0.646 | – | – | – | –
OC[C@H]1O[C@@H](Oc2cc3c(O)cc(O)cc3[o+]c2-c2ccc(O)c(O)c2)[C@H](O[C@@H]2OC[C@@H](O)[C@H](O)[C@H]2O)[C@@H](O)[C@@H]1O.[Cl-] [Cyanidin 3-sambubioside (chloride)] | -0.124 | -1.008 | -0.566 | – | 24866.3 | 1999.21 | – | – | 13432.8 | – | – | –
Oc1cc(O)c2cc(O)c(-c3ccc(O)c(O)c3)[o+]c2c1.[Cl-] [Cyanidin (Chloride)] | -1.789 | -1.05 | -1.419 | 3213.88 | 4876.54 | 1551.23 | – | – | – | – | – | –
OC[C@H]1O[C@@H](Oc2cc3c(O)cc(O)cc3[o+]c2-c2ccc(O)c(O)c2)[C@H](O)[C@@H](O)[C@H]1O.[Cl-] [Cyanidin-3-O-galactoside (chloride)] | -1.814 | -0.88 | -1.347 | 3972.36 | 4573.89 | 3370.84 | – | – | – | – | – | –
O=C([O-])C(O)Cc1ccc(O)c(O)c1.[Na+] (stereo not shown) [Danshensu (sodium salt)] | -0.172 | -0.817 | – | – | 24282 | 4039.49 | – | – | 14160.8 | – | – | -0.495
O=C(O)[C@H](O)Cc1ccc(O)c(O)c1 [Danshensu] | -0.37 | -1.076 | – | – | 21904.2 | 1269.24 | – | – | 11586.7 | – | – | -0.723
OC[C@H]1O[C@@H](Oc2cc3c(O)cc(O)cc3[o+]c2-c2cc(O)c(O)c(O)c2)[C@H](O)[C@@H](O)[C@@H]1O.[Cl-] [Delphinidin 3-glucoside (chloride)] | -1.229 | – | -1.2 | 5928.77 | 11598.4 | 259.098 | – | – | – | – | – | –
Oc1cc(O)c2cc(O)c(-c3cc(O)c(O)c(O)c3)[o+]c2c1.[Cl-] [Delphinidin (chloride)] | – | -0.674 | -1.417 | 2997.99 | 426.071 | 5569.91 | – | – | – | – | – | –

Source: paper PMC11784839, “Monoaminergic neurotransmitters are bimodal effectors of tau aggregation” (Science Advances, 2025)
